From ChEMBL document CHEMBL1144434, “Structure-activity relationships within a series of caspase inhibitors. Part 2: Heterocyclic warheads” (Bioorg Med Chem Lett, 2005)

Legend:
[1] = biological target: T1, Caspase-3 (Homo sapiens) (UniProt P42574); assay: Binding affinity against Caspase-3
T1 sequence (whole entry): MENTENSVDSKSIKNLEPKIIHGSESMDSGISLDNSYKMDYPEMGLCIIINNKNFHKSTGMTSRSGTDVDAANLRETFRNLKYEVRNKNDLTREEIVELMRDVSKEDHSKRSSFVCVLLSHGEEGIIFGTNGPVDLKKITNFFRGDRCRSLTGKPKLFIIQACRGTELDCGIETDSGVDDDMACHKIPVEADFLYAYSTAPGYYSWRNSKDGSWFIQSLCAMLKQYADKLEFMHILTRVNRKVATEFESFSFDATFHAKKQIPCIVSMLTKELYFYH

[2] = biological target: T2, Caspase-6 (Homo sapiens) (UniProt P55212); assay: Binding affinity against Caspase-6
T2 sequence (whole entry): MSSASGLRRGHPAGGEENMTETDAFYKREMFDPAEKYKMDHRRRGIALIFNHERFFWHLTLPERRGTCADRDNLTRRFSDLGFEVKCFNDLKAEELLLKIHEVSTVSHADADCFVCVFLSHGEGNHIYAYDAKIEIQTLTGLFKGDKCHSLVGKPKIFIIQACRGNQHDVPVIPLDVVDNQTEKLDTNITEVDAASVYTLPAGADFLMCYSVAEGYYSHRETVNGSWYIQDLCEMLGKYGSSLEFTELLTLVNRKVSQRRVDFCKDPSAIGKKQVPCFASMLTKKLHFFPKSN

[3] = biological target: Caspase-8 (Homo sapiens) (UniProt Q14790); assay: Binding affinity against Caspase-8
Caspase-8 (Homo sapiens), sequence (Q14790 217-374 limits assumed): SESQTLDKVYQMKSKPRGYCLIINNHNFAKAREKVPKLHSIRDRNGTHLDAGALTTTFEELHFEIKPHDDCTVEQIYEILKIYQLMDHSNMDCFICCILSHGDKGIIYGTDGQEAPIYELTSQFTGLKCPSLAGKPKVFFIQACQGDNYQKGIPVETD
Caspase-8 (Homo sapiens), sequence (Q14790 385-479 limits assumed): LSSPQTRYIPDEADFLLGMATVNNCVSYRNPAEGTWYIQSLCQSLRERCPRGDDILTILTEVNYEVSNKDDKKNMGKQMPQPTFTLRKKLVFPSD

[4] = biological target: T3, Caspase-1 (Mus musculus) (UniProt P29452); assay: Binding affinity against mouse Caspase-1
T3 sequence (whole entry): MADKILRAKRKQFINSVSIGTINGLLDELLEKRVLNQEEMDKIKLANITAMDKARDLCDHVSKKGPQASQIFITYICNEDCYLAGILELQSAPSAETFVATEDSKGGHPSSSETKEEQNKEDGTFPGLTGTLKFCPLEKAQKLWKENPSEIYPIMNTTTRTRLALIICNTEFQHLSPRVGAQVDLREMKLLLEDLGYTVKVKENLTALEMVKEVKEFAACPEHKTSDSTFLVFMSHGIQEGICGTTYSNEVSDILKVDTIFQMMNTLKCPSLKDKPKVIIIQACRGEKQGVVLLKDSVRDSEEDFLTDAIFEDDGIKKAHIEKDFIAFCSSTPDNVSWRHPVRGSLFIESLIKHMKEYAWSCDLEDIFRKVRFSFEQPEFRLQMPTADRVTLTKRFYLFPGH

[5] = system: Jurkat; assay: Inhibitory concentration for cellular activity in jurkat assay; type: functional, cell-based; details: Homo sapiens

SMILES | k3/ki [1] | k3/ki [2] | k3/ki [3] | k3/ki [4] | IC50 [5]
Cc1cc(OCC(=O)[C@H](CC(=O)O)NC(=O)[C@@H](NC(=O)COc2cccc3ccccc23)C(C)C)nc(C)n1 | 7480 1/m/s | 903 1/m/s | 367 1/m/s | 1330 1/m/s | > 200 µM
CC(C)[C@H](NC(=O)COc1cccc2ccccc12)C(=O)N[C@@H](CC(=O)O)C(=O)CSc1nccn1C | 11500 1/m/s | 570 1/m/s | 212 1/m/s | 1200 1/m/s | > 200 µM
CC(C)[C@H](NC(=O)COc1cccc2ccccc12)C(=O)N[C@@H](CC(=O)O)C(=O)CSc1nc(-c2ccccc2)c(-c2ccccc2)[nH]1 | 1390 1/m/s | 22 1/m/s | 0 1/m/s | 199 1/m/s | > 200 µM
CC(C)[C@H](NC(=O)COc1cccc2ccccc12)C(=O)N[C@@H](CC(=O)O)C(=O)CSc1nnnn1C | 34400 1/m/s | 2150 1/m/s | 6510 1/m/s | 3630 1/m/s | > 200 µM
CC(C)[C@H](NC(=O)COc1cccc2ccccc12)C(=O)N[C@@H](CC(=O)O)C(=O)COc1cc(C(F)(F)F)nn1-c1ccccc1 | 71100 1/m/s | 23900 1/m/s | 2270 1/m/s | 7570 1/m/s | 28 µM
CC(C)[C@H](NC(=O)COc1cccc2ccccc12)C(=O)N[C@@H](CC(=O)O)C(=O)COc1cccc2cccnc12 | 4360 1/m/s | 140 1/m/s | 39 1/m/s | 1260 1/m/s | > 200 µM
CC(C)[C@H](NC(=O)COc1cccc2ccccc12)C(=O)N[C@@H](CC(=O)O)C(=O)CSc1nc2ccccc2[nH]1 | 1770 1/m/s | 25 1/m/s | 10 1/m/s | 168 1/m/s | > 200 µM
CC(C)[C@H](NC(=O)COc1cccc2ccccc12)C(=O)N[C@@H](CC(=O)O)C(=O)COc1[nH]cnc2nncc1-2 | 906 1/m/s | 143 1/m/s | 107 1/m/s | 273 1/m/s | 161 µM
COC(=O)c1cc(OCC(=O)[C@H](CC(=O)O)NC(=O)[C@@H](NC(=O)COc2cccc3ccccc23)C(C)C)no1 | 144000 1/m/s | 5800 1/m/s | 6340 1/m/s | 42500 1/m/s | 71 µM
CC(C)[C@H](NC(=O)COc1cccc2ccccc12)C(=O)N[C@@H](CC(=O)O)C(=O)CSc1nc[nH]n1 | 401 1/m/s | 17 1/m/s | 0 1/m/s | 115 1/m/s | > 200 µM
CC(C)[C@H](NC(=O)COc1cccc2ccccc12)C(=O)N[C@@H](CC(=O)O)C(=O)CSc1nc(-c2ccccc2)c(-c2ccccc2)o1 | 2010 1/m/s | 0 1/m/s | 218 1/m/s | 200 1/m/s | > 200 µM
Cc1cc(C)nc(OCC(=O)[C@H](CC(=O)O)NC(=O)[C@@H](NC(=O)COc2cccc3ccccc23)C(C)C)n1 | 283 1/m/s | 0 1/m/s | 0 1/m/s | 10 1/m/s | 
CC(C)[C@H](NC(=O)COc1cccc2ccccc12)C(=O)N[C@@H](CC(=O)O)C(=O)CSc1nc(-c2ccccc2)cs1 | 2730 1/m/s | 0 1/m/s | 0 1/m/s | 217 1/m/s | > 200 µM
CC(C)c1cc(OCC(=O)[C@H](CC(=O)O)NC(=O)[C@@H](NC(=O)COc2cccc3ccccc23)C(C)C)no1 | 21800 1/m/s | 220 1/m/s | 279 1/m/s | 3670 1/m/s | > 200 µM
CC(C)[C@H](NC(=O)COc1cccc2ccccc12)C(=O)N[C@@H](CC(=O)O)C(=O)COc1ccncn1 | 0 1/m/s | 0 1/m/s | 0 1/m/s | 0 1/m/s | > 200 µM
CC(C)[C@H](NC(=O)COc1cccc2ccccc12)C(=O)N[C@@H](CC(=O)O)C(=O)COc1cc2ccccc2cn1 | 3350 1/m/s | 96 1/m/s | 8 1/m/s | 693 1/m/s | > 200 µM
CC(C)[C@H](NC(=O)COc1cccc2ccccc12)C(=O)N[C@@H](CC(=O)O)C(=O)CSc1nnnn1-c1ccccc1 | 19200 1/m/s | 224 1/m/s | 0 1/m/s | 400 1/m/s | 153 µM
CC(C)[C@H](NC(=O)COc1cccc2ccccc12)C(=O)N[C@@H](CC(=O)O)C(=O)CSc1nnc(-c2ccccc2)o1 | 4800 1/m/s | 110 1/m/s | 276 1/m/s | 280 1/m/s | 150 µM
CC(C)[C@H](NC(=O)COc1cccc2ccccc12)C(=O)N[C@@H](CC(=O)O)C(=O)CSc1ncc[nH]1 | 850 1/m/s | 22 1/m/s | 0 1/m/s | 173 1/m/s | > 200 µM
CC(C)[C@H](NC(=O)COc1cccc2ccccc12)C(=O)N[C@@H](CC(=O)O)C(=O)COc1ccccn1 | 733 1/m/s | 5 1/m/s | 8 1/m/s | 138 1/m/s | > 200 µM
CC(C)[C@H](NC(=O)COc1cccc2ccccc12)C(=O)N[C@@H](CC(=O)O)C(=O)CSc1nc(-c2ccccc2)no1 | 38100 1/m/s | 975 1/m/s | 3060 1/m/s | 1190 1/m/s | 102 µM

Further lines, results first:

k3/ki [1] | k3/ki [2] | k3/ki [3] | k3/ki [4] | IC50 [5] | SMILES
979 1/m/s | 0 1/m/s | 9 1/m/s | 67 1/m/s | > 200 µM | CC(C)[C@H](NC(=O)COc1cccc2ccccc12)C(=O)N[C@@H](CC(=O)O)C(=O)COc1ccc2ccccc2n1
0 1/m/s | 0 1/m/s | 0 1/m/s | 0 1/m/s | > 200 µM | CC(C)[C@H](NC(=O)COc1cccc2ccccc12)C(=O)N[C@@H](CC(=O)O)C(=O)CSc1nccc(C(F)(F)F)n1
958 1/m/s | 0 1/m/s | 2 1/m/s | 41 1/m/s | > 200 µM | CC(C)[C@H](NC(=O)COc1cccc2ccccc12)C(=O)N[C@@H](CC(=O)O)C(=O)COc1nc2ccccc2[nH]1
348 1/m/s | 0 1/m/s | 0 1/m/s | 0 1/m/s |  | CC(C)[C@H](NC(=O)COc1cccc2ccccc12)C(=O)N[C@@H](CC(=O)O)C(=O)CSc1ccccn1
0 1/m/s |  | 0 1/m/s | 0 1/m/s | > 200 µM | CC(C)[C@H](NC(=O)COc1cccc2ccccc12)C(=O)N[C@@H](CC(=O)O)C(=O)CSc1nc2ccccc2o1
1750 1/m/s | 156 1/m/s | 0 1/m/s | 479 1/m/s | > 200 µM | CC(C)[C@H](NC(=O)COc1cccc2ccccc12)C(=O)N[C@@H](CC(=O)O)C(=O)COc1cc(C(F)(F)F)ncn1
2300 1/m/s | 228 1/m/s | 231 1/m/s | 186 1/m/s | > 200 µM | CC(C)[C@H](NC(=O)COc1cccc2ccccc12)C(=O)N[C@@H](CC(=O)O)C(=O)CSC1=NCCS1
343 1/m/s | 0 1/m/s | 4 1/m/s | 83 1/m/s | > 200 µM | CC(C)[C@H](NC(=O)COc1cccc2ccccc12)C(=O)N[C@@H](CC(=O)O)C(=O)COc1ncnc2ccccc12
1760 1/m/s | 8 1/m/s | 0 1/m/s | 152 1/m/s | > 200 µM | CC(C)[C@H](NC(=O)COc1cccc2ccccc12)C(=O)N[C@@H](CC(=O)O)C(=O)COc1nncc(Cl)c1Cl
1310 1/m/s | 462 1/m/s | 177 1/m/s | 360 1/m/s | 106 µM | CC(C)[C@H](NC(=O)COc1cccc2ccccc12)C(=O)N[C@@H](CC(=O)O)C(=O)COc1nccc2ccccc12
114000 1/m/s | 5150 1/m/s | 3200 1/m/s | 24800 1/m/s | 37 µM | CC(C)[C@H](NC(=O)COc1cccc2ccccc12)C(=O)N[C@@H](CC(=O)O)C(=O)COc1ccnc(C(F)(F)F)n1
35500 1/m/s | 509 1/m/s | 295 1/m/s | 9400 1/m/s | 46 µM | CC(C)[C@H](NC(=O)COc1cccc2ccccc12)C(=O)N[C@@H](CC(=O)O)C(=O)COc1cc(C(F)(F)F)n(C)n1
169000 1/m/s | 44000 1/m/s | 18200 1/m/s | 45400 1/m/s | 137 µM | CC(C)[C@H](NC(=O)COc1cccc2ccccc12)C(=O)N[C@@H](CC(=O)O)C(=O)COn1nnc2ccccc2c1=O
0 1/m/s | 0 1/m/s | 0 1/m/s | 0 1/m/s | > 200 µM | CC(C)[C@H](NC(=O)COc1cccc2ccccc12)C(=O)N[C@@H](CC(=O)O)C(=O)COc1nccc(C(F)(F)F)n1
3570 1/m/s | 0 1/m/s | 0 1/m/s | 202 1/m/s | > 200 µM | CC(C)[C@H](NC(=O)COc1cccc2ccccc12)C(=O)N[C@@H](CC(=O)O)C(=O)CSc1nc2ccccc2s1
